Source: patent publication US4885277A, “Anticoagulant therapy” (Oklahoma Medical Research Foundation, priority 1987, dated 1989)
Where no end group is shown, it is not given here. [ ]: non-standard residue; d: D form. pGlu = O=C1CC[C@@H](C(=O)O)N1

Tested on: endothelial cellular receptors for Factor IX (cultured bovine aortic endothelial cells)
Experiment: Competitive binding of [125I]-Factor IX to cultured bovine aortic endothelial cells
Conditions: up to millimolar amounts of peptide
Protocol: The purified peptides were tested for their ability to block the binding of bovine Factor IX and IXa to cultured bovine aortic endothelial cells. Bovine Factor IX and IXa for these studies were prepared and radioiodinated (using Na^125 I and the solid state lactoperoxidase technique) using methods described by Stern, et al. (J. Biol. Chem. 260, pp. 6717-6722 [1985]). Bovine aortic endothelial cells were obtained from the aortae of newborn calves as described by Stern, et al. (Proc. Natl. Acad. Sci. U.S.A., 80, pp. 4119-4123 [1983]). These endothelial cells were grown to confluence (1.3×10^5 cells/cm^2) in culture dishes. Binding assays were carried out by incubating either ^125 I-Factor IX or ^125 I-Factor IXa with endothelial cell monolayers in the presence of varying concentrations of one of the peptides. The buffer used in these experiments was Minimal Essential Medium containing 0.5 mg/ml transferring, and the incubation time was 4-5 hours at 4° C. At the end of the incubation period, the cultures were washed to remove unbound material. Then, specifically bound [^125 I]-Factor IX or [^125 I]-Factor IXa was eluted during exposure to EDTA-containing buffer as described by Stern, et al. (Proc. Natl. Acad. Sci. U.S.A., 80, pp. 4119-4123 [1983].

Row | Substance | inhibition of [125I]-Factor IX endothelial cell binding
1 | PCA-Gly-Val-Asn-Glu-Glu-Gly-Phe-Phe-Ser-Ala-Arg ([pGlu]GVNEEGFFSAR) [fibrinopeptide B, control peptide for specificity] | no inhibition
2 | DRVYVHPSL [Angiotensin I, control peptide for specificity] | no inhibition
